Here are results for 15 compounds from patent publication US20220144812A1, “QUINOLINE DERIVATIVES AND THEIR USE FOR THE TREATMENT OF CANCER” (Epizyme, Inc., priority 2019, published 2022).

Test [1] relates to H3K18Ac in HB-CLS-2 cells. Nature of the test: H3K18AC in-cell western (ICW) assay. As to conditions: H3K18Ac in-cell western; read-out: CREBBP ICW IC50. The class given is cell-based. The method in brief: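 In-cell western: after methanol fixation, blocking, overnight 4° C anti-H3K18Ac staining, then 800CW secondary plus DRAQ5 for DNA content, integrated intensities were scanned at 800 and 700 nm. Before this, compound exposure lasted 2 hr at 37° C in HB-CLS-2 cells plated 16–24 hours earlier. Values expressed as IC50 (μM).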

Another test deals with 647V cells. Nature of the test: High throughput proliferation (HTP) assay. In kind it is cell-based. The settings on record: high throughput proliferation, read-out: CREBBP HTP IC50. In short, it runs like this: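 Proliferation IC50 (micromolar) derived from a 7-day CellTiter-Glo viable-cell readout in 647V cells exposed, in triplicate, to rising compound concentrations; cells grown in DMEM plus 15% heat-inactivated FBS at 37° C under 5% CO2.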

The target of the next test is T1, CREBBP (1084-1701) (Homo sapiens, UniProt Q92793).
T1 construct: measured in the following biochemical assay using CREBBP (1084-1701); purchased
Nature of the test: Biochemical assay for CREBBP (1084-1701), SAMDI. As to conditions: SAMDI, read-out: CREBBP Biochemistry IC50. The method in brief:
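Acetyltransferase activity measured by SAMDI mass spectrometry after capture on biochip. Enzyme sat with compound 30 min at RT before acetyl-CoA and biotinylated H3 11-25 (K14R, K23R) peptide were added for 30 min at RT. Formic acid quench, bicarbonate neutralisation; IC50 values reported.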

The next test has as its target T2, EP300 (P300(1048-1664)) (Homo sapiens, UniProt Q09472).
T2 construct: P300(1048-1664)
T2 sequence (Q09472 1048-1664): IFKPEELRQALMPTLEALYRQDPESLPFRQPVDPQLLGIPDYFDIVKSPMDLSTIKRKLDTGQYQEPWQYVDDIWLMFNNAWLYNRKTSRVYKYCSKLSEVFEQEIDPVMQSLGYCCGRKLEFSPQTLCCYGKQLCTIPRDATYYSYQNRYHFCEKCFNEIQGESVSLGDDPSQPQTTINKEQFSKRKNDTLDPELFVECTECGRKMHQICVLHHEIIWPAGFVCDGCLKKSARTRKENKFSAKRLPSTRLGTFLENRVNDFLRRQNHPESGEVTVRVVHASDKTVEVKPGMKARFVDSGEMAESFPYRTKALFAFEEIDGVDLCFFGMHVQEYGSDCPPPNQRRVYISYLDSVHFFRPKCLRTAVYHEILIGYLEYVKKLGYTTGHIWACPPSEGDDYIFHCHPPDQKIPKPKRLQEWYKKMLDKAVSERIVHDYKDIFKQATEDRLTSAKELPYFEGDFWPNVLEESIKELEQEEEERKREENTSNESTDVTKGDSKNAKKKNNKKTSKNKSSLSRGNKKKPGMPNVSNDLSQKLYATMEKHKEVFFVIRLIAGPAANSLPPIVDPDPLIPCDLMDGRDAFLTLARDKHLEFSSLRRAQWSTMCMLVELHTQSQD
Nature of the test: Biochemical assay for EP300, SAMDI. As to conditions: EP300, SAMDI; read-out: EP300 Biochemistry IC50. The source says:
The following example describes materials and methods relating to a biochemical assay for EP300. IC50 values (micromolar (μM)) are summarized in Table 1, Table 2, and Table 3 under the column labeled: “EP300 Biochemistry IC50 (micromolar).”

pIC50: −log10 of the molar value. Where two headings read alike, the source gives them in different places.

T1 sequence (Q92793 1084-1701): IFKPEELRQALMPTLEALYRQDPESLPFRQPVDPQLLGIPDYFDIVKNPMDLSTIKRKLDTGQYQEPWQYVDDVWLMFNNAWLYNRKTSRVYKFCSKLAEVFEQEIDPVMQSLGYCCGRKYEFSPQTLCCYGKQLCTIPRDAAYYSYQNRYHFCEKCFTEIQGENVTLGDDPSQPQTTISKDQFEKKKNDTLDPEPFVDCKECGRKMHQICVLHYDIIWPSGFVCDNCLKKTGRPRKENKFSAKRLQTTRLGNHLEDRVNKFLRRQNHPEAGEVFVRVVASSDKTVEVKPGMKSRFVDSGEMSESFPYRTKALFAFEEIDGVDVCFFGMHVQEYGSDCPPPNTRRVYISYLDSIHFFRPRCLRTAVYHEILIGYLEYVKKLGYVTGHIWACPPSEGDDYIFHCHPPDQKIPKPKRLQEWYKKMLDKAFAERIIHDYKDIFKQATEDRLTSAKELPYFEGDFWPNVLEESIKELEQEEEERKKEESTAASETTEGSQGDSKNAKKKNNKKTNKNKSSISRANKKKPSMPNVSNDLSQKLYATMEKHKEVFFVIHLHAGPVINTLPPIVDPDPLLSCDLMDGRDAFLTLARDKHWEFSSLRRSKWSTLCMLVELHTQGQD

Turning to `CCn1ncc(CN(C)C(=O)c2nc(-c3cc(C(=O)NC4CCN(C)CC4)n(C)n3)nc3ccc(Cl)cc23)c1C` [Compound 65], the pIC50 is 6.14 in test [1]; 6.13 with 647V cells (Homo sapiens, 647-V); 6.39 at CREBBP (1084-1701); 6.10 at EP300 (P300(1048-1664)).
On the same counts, the results for `CCn1ncc(CN(C)C(=O)c2nc(-c3ccc(OCCCO)c(C)c3)nc3ccc(Cl)cc23)c1C` [Compound 66] are 6.14, 6.27, 6.42 and 6.11.
On the same counts, the results for `CCn1ncc(CN(C)C(=O)c2nc(-c3ccc4cc[nH]c4c3)nc3ccc(Cl)cc23)c1C` [Compound 67] are 6.11, 6.26, 6.55 and 6.60.
The like results for `CCn1ncc(CN(C)C(=O)c2nc(-c3cc(C)cc(CNC)c3)nc3ccc(Cl)cc23)c1C` [Compound 69] were, in that order, 6.06, 6.38, 7.00 and 6.21.
For the compound `CCn1ncc(CN(C)C(=O)c2cc(-c3cn(CCNC)cn3)nc3ccc(Cl)cc23)c1C` [Compound 73], the pIC50 in test [1] is 6.00; with 647V cells it was 5.89; at CREBBP (1084-1701), 6.09; at EP300 (P300(1048-1664)) it was 6.44.
Take `CCn1ncc(CN(C)C(=O)c2cc(-c3ccc(NC(=O)CNC)c(C)n3)nc3ccc(Cl)cc23)c1C` [Compound 74]: the pIC50 in test [1] is 6.00; in the test with 647V cells (Homo sapiens, 647-V), 5.82; on CREBBP (1084-1701), 5.68; at EP300 (P300(1048-1664)), 5.96.
Consider `CCn1ncc(CN(C)C(=O)c2nc(-c3cc(C(=O)NCCCN4CCCC4)[nH]n3)nc3ccc(Cl)cc23)c1C` [Compound 75], for which the pIC50 in test [1] is 6.00; in the test on 647V cells (Homo sapiens, 647-V), 6.29; on CREBBP (1084-1701), 6.89; at EP300 (P300(1048-1664)) it was 7.27.
The like results for `CCn1ncc(CN(C)C(=O)c2nc(-c3ccc(OCCN)c(C)c3)nc3ccc(Cl)cc23)c1C` [Compound 76] were, in that order, 5.96, 6.08, 7.55 and 6.74.
In the case of `CCn1ncc(CN(C)C(=O)c2nc(-c3ccnc(N)c3)nc3ccc(Cl)cc23)c1C` [Compound 77], the pIC50 in test [1] is 5.96; in the test on 647V cells (Homo sapiens, 647-V), 6.12; at CREBBP (1084-1701) it was 5.80; at EP300 (P300(1048-1664)), 5.89.
Turning to `CCn1ncc(CN(C)C(=O)c2nc(-c3cc(C)cc(NC4CCOCC4)c3)nc3ccc(Cl)cc23)c1C` [Compound 78], the pIC50 in test [1] was 5.96; in the test with 647V cells (Homo sapiens, 647-V), 5.92; at CREBBP (1084-1701), 7.17; at EP300 (P300(1048-1664)) it was 7.18.
Regarding `CCn1ncc(CN(C)C(=O)c2nc(-c3ccc(NCCNC)c(C)n3)nc3ccc(Cl)cc23)c1C` [Compound 79], the pIC50 in test [1] was 5.92; in the test on 647V cells (Homo sapiens, 647-V) it was 6.07; at CREBBP (1084-1701) it was 6.17; at EP300 (P300(1048-1664)), 5.68.
On the same counts, the results for `CCn1ncc(CN(C)C(=O)c2nc(-c3cc(C(=O)NCCN4CCCC4)[nH]n3)nc3ccc(Cl)cc23)c1C` [Compound 80] are 5.92, 5.85, 5.92 and 6.16.
Regarding `CCn1ncc(CN(C)C(=O)c2nc(-c3cc(Cl)cc(CNC)c3)nc3ccc(Cl)cc23)c1C` [Compound 82], the pIC50 in test [1] was 5.92; with 647V cells (Homo sapiens, 647-V), 6.24; on CREBBP (1084-1701), 7.00; on EP300 (P300(1048-1664)), 6.34.
On the same counts, the results for `CCn1ncc(CN(C)C(=O)c2nc(-c3ccc(OCCCNC)c(OC)c3)nc3ccc(Cl)cc23)c1C` [Compound 84] are 5.89, 6.07, 6.09 and 5.60.
On the same counts, the results for `CCn1ncc(CN(C)C(=O)c2nc(-c3cccc(Cl)c3)nc3c(CNC)cc(Cl)cc23)c1C` [Compound 85] are 5.89, 5.89, 6.74 and 6.40.

As a reminder, the pIC50 is the IC50 on a negative log10 scale, so that one unit is a factor of ten.
